{
  "source": "ChEMBL document CHEMBL1201862",
  "about": "“PubChem BioAssay data set” (2004)",
  "key": {"[1]": {"test": "Luminescence Cell-Based Dose Confirmation HTS to Identify Inhibitors of Platelet Dense Granule Release. [Related pubchem assays: 1663 (Primary HTS), 1678 (Summary of Project)]", "assay_type": "functional"}, "HEK293 [2]": {"test_system": "HEK293", "test": "cells", "details": "Homo sapiens"}, "[3]": {"biological_target": "Luciferin 4-monooxygenase (Photinus pyralis, UniProt P08659)", "sequence (P08659 whole entry)": "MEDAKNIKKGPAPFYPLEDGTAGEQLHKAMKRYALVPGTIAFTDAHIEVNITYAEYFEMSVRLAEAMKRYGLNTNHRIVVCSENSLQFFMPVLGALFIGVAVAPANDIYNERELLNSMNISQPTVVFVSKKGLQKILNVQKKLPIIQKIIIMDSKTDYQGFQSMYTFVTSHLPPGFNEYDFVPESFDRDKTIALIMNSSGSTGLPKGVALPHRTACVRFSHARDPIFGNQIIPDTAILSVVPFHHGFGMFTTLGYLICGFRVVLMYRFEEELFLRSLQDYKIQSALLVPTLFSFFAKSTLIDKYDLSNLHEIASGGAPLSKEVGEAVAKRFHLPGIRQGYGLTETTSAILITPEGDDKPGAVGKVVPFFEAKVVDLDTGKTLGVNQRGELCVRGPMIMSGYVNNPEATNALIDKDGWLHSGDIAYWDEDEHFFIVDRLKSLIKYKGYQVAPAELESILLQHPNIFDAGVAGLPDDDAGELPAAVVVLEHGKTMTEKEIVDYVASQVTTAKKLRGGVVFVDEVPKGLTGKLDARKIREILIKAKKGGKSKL", "test": "inhibition of purified Photinus pyralis luciferase – biochemical, luminescence, dose response (AID 1891)"}, "[4]": {"biological_target": "T1, High affinity choline transporter 1 (Homo sapiens, UniProt Q9GZV3)", "T1 sequence (Q9GZV3 whole entry)": "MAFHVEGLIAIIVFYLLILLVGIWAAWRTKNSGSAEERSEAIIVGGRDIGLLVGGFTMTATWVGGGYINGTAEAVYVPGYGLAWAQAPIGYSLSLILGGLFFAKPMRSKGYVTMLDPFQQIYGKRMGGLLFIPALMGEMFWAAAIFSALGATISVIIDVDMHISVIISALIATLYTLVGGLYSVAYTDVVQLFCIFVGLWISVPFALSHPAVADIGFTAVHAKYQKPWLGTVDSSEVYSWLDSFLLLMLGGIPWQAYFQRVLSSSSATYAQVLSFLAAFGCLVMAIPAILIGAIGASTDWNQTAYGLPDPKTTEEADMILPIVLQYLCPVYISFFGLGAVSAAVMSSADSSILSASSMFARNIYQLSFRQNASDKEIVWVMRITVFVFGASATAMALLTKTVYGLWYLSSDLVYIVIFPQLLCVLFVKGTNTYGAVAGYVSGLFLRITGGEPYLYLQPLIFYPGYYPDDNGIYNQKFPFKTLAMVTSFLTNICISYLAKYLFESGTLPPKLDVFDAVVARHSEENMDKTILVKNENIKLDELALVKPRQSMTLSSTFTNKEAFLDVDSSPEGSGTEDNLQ", "test": "human choline transporter blockers, potency – cell-based, 10-point CRC, membrane potential dye, dose response (AID 588401);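 note: membrane potential dye fluorescence of choline-evoked depolarization via CHT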", "assay_type": "functional"}, "HEK293 [5]": {"test_system": "HEK293", "test": "cells", "details": "Homo sapiens", "remark": "listed apart in the source"}, "[6]": {"biological_target": "T1, High affinity choline transporter 1", "test": "human choline transporter blockers, potency – cell-based, 5-point CRC, membrane potential dye, dose response (AID 504840)", "assay_type": "functional"}},
  "note": "Active and inactive are the calls of the source.",
  "data": [
    {"smiles": "C=C[C@@]1(C)CC(=O)[C@]2(O)[C@@]3(C)[C@@H](O)CCC(C)(C)[C@@H]3[C@H](OC(C)=O)[C@H](O)[C@@]2(C)O1", "values": [
      {"measurement": "EC50", "setting": "[1]", "result": "4.26 µM (active)"},
      {"measurement": "EC50", "setting": "HEK293 [2]", "result": "> 59.7 µM (inactive)"},
      {"measurement": "EC50", "setting": "[3]", "result": "> 112 µM (not active)"},
      {"measurement": "IC50", "setting": "[4]", "result": "0.815 µM (active)"},
      {"measurement": "EC50", "setting": "HEK293 [5]", "result": "> 59.7 µM (inactive)"},
      {"measurement": "IC50", "setting": "[6]", "result": "1.52 µM (active)"}
    ]}
  ]
}
